Data from patent US20020026053A1, “Novel 3-(substituted) -2- indolinones compounds and use thereof as inhibitors of protein kinase activity” (priority 1997, published 2002).

The compounds below were run against T1, Met receptor (EGFR/Met chimeric cells, EMR) (Homo sapiens, UniProt P08581) (assay: Met Autophosphorylation Assay). Settings: protocol P.130.
T1 construct: expressed in transfected cells; the other entry of the earlier key: EGFR (P00533, Epidermal growth factor receptor)
Type: biochemical
Outline: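 Met phosphorylation was measured by capture ELISA. Lysates (90 μg/100 μl, HNTG plus 1 mM PMSF) from transiently transfected EGFR/Met chimera (EMR) cells were bound for 60 min at room temperature to wells holding rabbit anti-Met (C-28) on goat anti-rabbit coat. Phosphotyrosine was the read-out.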

T1 sequence (P08581 with tags, fused parts or gaps): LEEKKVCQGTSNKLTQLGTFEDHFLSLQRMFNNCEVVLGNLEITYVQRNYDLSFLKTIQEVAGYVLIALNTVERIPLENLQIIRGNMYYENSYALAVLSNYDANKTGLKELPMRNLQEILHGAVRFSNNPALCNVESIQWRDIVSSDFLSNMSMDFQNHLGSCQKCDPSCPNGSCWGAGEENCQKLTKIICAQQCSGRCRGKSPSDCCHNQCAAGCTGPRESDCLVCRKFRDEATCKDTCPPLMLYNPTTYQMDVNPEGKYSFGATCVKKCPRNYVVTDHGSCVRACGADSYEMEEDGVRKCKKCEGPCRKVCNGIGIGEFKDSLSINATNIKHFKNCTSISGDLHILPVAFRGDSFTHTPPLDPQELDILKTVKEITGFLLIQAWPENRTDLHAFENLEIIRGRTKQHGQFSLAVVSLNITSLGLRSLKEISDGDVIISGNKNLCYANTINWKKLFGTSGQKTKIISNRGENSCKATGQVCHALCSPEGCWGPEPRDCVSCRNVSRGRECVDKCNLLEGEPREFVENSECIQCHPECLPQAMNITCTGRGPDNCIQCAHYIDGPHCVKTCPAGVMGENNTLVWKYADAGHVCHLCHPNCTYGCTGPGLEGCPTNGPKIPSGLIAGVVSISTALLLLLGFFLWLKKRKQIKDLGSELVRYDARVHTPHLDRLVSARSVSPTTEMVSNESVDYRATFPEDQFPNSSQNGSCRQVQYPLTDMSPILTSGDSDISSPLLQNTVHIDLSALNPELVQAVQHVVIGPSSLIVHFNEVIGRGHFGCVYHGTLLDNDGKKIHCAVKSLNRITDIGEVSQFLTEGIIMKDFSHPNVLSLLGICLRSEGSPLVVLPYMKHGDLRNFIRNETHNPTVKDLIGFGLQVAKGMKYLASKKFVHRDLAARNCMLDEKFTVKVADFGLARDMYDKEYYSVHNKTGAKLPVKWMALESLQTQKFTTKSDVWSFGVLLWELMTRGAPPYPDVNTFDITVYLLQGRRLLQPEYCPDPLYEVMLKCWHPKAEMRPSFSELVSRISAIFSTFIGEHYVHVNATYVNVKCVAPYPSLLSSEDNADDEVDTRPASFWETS

Compound | Met Kinase % Inhibition (P.130)
Cc1c(Br)ccc2c1C(=Cc1cc(O)cc(O)c1)C(=O)N2 [10738/C07] | 51.2%
Cc1c(Br)cc(Br)c2c1C(=Cc1cccc(Oc3ccc(Cl)c(Cl)c3)c1)C(=O)N2 [10738/H03] | 29.5%
O=C1Nc2ccc(S(=O)(=O)Nc3ccc(C(F)(F)F)cc3)cc2C1=Cc1ccc(Cl)c(Cl)c1 [10738/E08] | 52.6%
COc1ccc(C=C2C(=O)Nc3ccc(Br)c(C)c32)cc1O [10738/C04] | 53.7%
COc1ccc(C=C2C(=O)Nc3c(Br)cc(Br)c(C)c32)cc1O [10738/H04] | 72.9%
COc1ccc(C=C2C(=O)Nc3ccc(S(=O)(=O)Nc4ccc(C(F)(F)F)cc4)cc32)cc1O [10738/E04] | 64.1%
Cc1c(Br)cc(Br)c2c1C(=Cc1cccc(O)c1O)C(=O)N2 [10738/H06] | 93.8%
CNS(=O)(=O)c1ccc2c(c1)C(=Cc1cccc(O)c1O)C(=O)N2 [10738/D06] | 96.0%
O=C1Nc2ccc(I)cc2C1=Cc1ccc(Cl)c(Cl)c1 [10738/B08] | 70.9%
O=C1Nc2ccc(I)cc2C1=Cc1cccc(O)c1O [10738/B06] | 83.6%
COc1ccc(C=C2C(=O)Nc3ccc(S(=O)(=O)N4CCOCC4)cc32)cc1O [10738/F04] | 61.4%
O=C1Nc2c(Br)cc(Br)cc2C1=Cc1ccc(Cl)c(Cl)c1 [10738/A08] | 12.2%
COc1ccccc1C=C1C(=O)Nc2c(Br)cc(Br)cc21 [10738/A09] | 20.2%
O=C1Nc2ccc(I)cc2C1=Cc1cc(O)cc(O)c1 [10738/B07] | 66.7%
O=C1Nc2ccc(S(=O)(=O)N3CCOCC3)cc2C1=Cc1ccc(Cl)c(Cl)c1 [10738/F08] | 60.5%
Cc1c(Br)ccc2c1C(=Cc1cccc(Oc3ccc(Cl)c(Cl)c3)c1)C(=O)N2 [10738/C03] | 22.7%
COc1ccccc1C=C1C(=O)Nc2ccc(S(=O)(=O)Nc3ccc(C(F)(F)F)cc3)cc21 [10738/E09] | 18.0%
Cc1ccc(Oc2cccc(C=C3C(=O)Nc4ccc(S(=O)(=O)Nc5ccc(C(F)(F)F)cc5)cc43)c2)cc1 [10738/E02] | 3.8%
O=C1Nc2c(Br)cc(Br)cc2C1=Cc1cccc(Oc2ccc(Cl)c(Cl)c2)c1 [10738/A03] | 20.7%
Cc1c(Br)ccc2c1C(=Cc1cccc(O)c1O)C(=O)N2 [10738/C06] | 92.2%
CC(C)c1ccc(C=C2C(=O)Nc3ccc(S(=O)(=O)N4CCOCC4)cc32)cc1 [10738/F10] | 47.9%
O=C1Nc2c(Br)cc(Br)cc2C1=Cc1cc(O)ccc1[N+](=O)[O-] [10738/A05] | 33.1%
CCCOc1ccc(C=C2C(=O)Nc3ccc(S(=O)(=O)NC)cc32)cc1 [10738/D11] | 4.3%
